These results are taken from patent US7829298B2, “Human G protein-coupled receptors for metabolic-related disorders” (Arena Pharmaceuticals, Inc., priority 2001, dated 2010).

“Also recorded” adds a separate entry of the source. Where two headings read alike, the source gives them in different places.

One data set has as its target hRUP25 (Homo sapiens, UniProt Q8TDS4). Briefly: Inhibition of forskolin stimulated cAMP accumulation in stable CHO cells (adenylyl cyclase assay). The class given is cell-based. The note with it: for inhibition of forskolin stimulated cAMP / agonist or not (in words): CHO cells expressing hRUP25.
The next data set addresses T1, hRUP38 (Homo sapiens, UniProt P49019).
T1 construct: The full length hRUP38 was cloned by PCR using hRUP38 specific primers; expressed in transfected cells
Briefly: Inhibition of forskolin stimulated cAMP in stable CHO cells (adenylyl cyclase assay). The class given is cell-based. An excerpt: (§1) A Flash Plate™ Adenylyl Cyclase kit (New England Nuclear; Cat. No. SMP004A) designed for cell-based assays can be modified for use with crude plasma membranes. The Flash Plate wells can contain a scintillant coating which also contains a specific antibody recognizing cAMP. The cAMP generated in the wells can be quantitated by a direct competition for binding of radioactive cAMP tracer to the cAMP antibody. The following serves as a brief protocol for the measurement of changes in cAMP levels in whole cells that express the receptors.
(§2) Media is carefully aspirated off and discarded. 10 ml of PBS is gently added to each dish of cells followed by careful aspiration. 1 ml of Sigma cell dissociation buffer and 3 ml of PBS are added to each plate. Cells were pipetted off the plate and the cell suspension was collected into a 50 ml conical centrifuge tube. Cells were then centrifuged at room temperature at 1,100 rpm for 5 min. The cell pellet was carefully re-suspended into an appropriate volume of PBS (about 3 ml/plate). The cells were then counted using a hemocytometer and additional PBS was added to give the appropriate number of cells (with a final volume of about 50 μl/well).
The cells were then added to the wells and incubated for 60 min at room temperature. 100 μl of Detection Mix containing tracer cAMP was then added to the wells. Plates were then incubated additional 2 hours followed by counting in a Wallac MicroBeta scintillation counter. Values of cAMP/well were then extrapolated from a standard cAMP curve which was contained within each assay plate.

Data set [1] concerns adipocyte primary cultures derived from human subcutaneous fat. The data set is described as follows: Isoproterenol induced lipolysis in human primary adipocytes. The class given is cell-based. Conditions: for EC50: read-out: EC50, inhibition of isoproterenol induced lipolysis. An excerpt: Lipolysis assays were done following the isolation of adipocytes from rat or human. The source of fat from rats was the epididymal fat and from humans was either subcutaneous or omental. Cells were isolated following collagenase digestion and floatation. An elevation of intracellular cAMP levels and concomitant activation of lipolysis via hormone sensitive lipase was accomplished using isoproterenol, forskolin, 3-isobutyl-1-methyl-xanthine (IBMX) or a combination thereof at concentrations and times determined empirically and depending on the source of tissue. […] Data was analyzed using Excel and PrismGraph.

In data set [2] the target is T2, hRUP19 (Homo sapiens, UniProt Q9BXC0). Briefly: Inhibition of forskolin stimulated cAMP in stable CHO cells (adenylyl cyclase assay). The class given is cell-based. The arrangement: The full length hRUP19 was cloned by PCR using primers; expressed in transfected cells. The note with it: CHO cells expressing hRUP19.
T2 sequence (Q9BXC0 whole entry): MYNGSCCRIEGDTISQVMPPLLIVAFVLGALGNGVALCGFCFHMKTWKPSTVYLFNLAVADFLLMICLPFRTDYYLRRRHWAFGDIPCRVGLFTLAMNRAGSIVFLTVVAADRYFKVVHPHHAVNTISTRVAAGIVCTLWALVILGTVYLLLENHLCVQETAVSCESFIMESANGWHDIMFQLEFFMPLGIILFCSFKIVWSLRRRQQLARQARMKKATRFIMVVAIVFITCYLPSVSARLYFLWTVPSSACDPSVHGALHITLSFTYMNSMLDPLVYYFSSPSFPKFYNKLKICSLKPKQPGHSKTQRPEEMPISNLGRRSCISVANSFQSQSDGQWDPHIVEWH
Description: as §1
as §2, with “μl/well). […]” for “μl/well).”

Data set [3] deals with T2, hRUP19. Conditions: HEK293 cells transfected with GqΔGi plus hRUP19.
Data set [4] relates to rat epididymal fat derived adipocytes. Conditions: concentration of 10 μM.
The subject of another data set is male Sprague Dawley rats. Conditions: for plasma free fatty acids (FFA) level (in words): fasted rats, IP injection, 15 mg/kg, 30 mg/kg or 45 mg/kg, time course.

Sequence of hRUP25 (Q8TDS4 whole entry): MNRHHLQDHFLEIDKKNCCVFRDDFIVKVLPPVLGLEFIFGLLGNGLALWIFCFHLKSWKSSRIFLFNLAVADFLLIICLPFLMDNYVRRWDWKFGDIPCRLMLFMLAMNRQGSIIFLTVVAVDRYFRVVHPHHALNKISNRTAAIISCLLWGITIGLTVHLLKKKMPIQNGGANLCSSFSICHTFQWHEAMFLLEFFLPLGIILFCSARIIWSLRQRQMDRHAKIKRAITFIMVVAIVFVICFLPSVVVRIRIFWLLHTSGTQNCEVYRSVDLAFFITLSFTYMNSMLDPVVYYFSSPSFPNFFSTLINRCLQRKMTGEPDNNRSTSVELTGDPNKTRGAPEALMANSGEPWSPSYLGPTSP
T1 sequence (P49019 whole entry K94N/T173P/F198L/H253R/I317M/I346M): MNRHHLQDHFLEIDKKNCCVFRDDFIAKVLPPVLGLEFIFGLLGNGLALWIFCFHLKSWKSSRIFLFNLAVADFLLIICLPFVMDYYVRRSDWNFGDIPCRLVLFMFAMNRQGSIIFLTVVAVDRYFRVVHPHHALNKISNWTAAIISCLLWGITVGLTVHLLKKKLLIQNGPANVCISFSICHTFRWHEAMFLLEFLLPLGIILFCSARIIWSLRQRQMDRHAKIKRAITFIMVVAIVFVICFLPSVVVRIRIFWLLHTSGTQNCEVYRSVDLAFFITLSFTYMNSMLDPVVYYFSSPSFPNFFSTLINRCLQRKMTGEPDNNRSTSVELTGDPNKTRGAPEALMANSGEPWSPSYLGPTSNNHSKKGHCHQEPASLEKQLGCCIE

As to `CC(C)n1nnc2cc(C(=O)O)ccc21` [1-Isopropyl-1H-benzotriazole-5-carboxylic acid], the “inhibition of forskolin stimulated cAMP / agonist or not (in words)” value at hRUP25 was “no effect”; on hRUP38 (hRUP38-expressing CHO cells), “does and agonist for hRUP38”; at hRUP19 [2], “no effect”. The “inhibition of isoproterenol stimulated lipolysis (in words)” value in data set [1] (isoproterenol 100 nM, primary human adipocytes) is “dose-dependant manner comparable to that of nicotinic acid; also recorded: dose-dependent manner comparable to that of nicotinic acid; also recorded: inhibit lipolysis”.

`CCOc1ccc(Br)cc1C=CC(=O)O` [3-(5-Bromo-2-ethoxy-phenyl)-acrylic acid]: the “inhibition of forskolin stimulated cAMP / agonist or not (in words)” value at hRUP25 is listed as “no effect”; on hRUP38 (hRUP38-expressing CHO cells) it was “activates inhibition of forskolin stimulated cAMP; also recorded: agonist for RUP38”; on hRUP19 [2] it was “no effect”. At hRUP38 (hRUP38-expressing CHO cells), this compound came in with an EC50 of 1170 nM.

For the compound `CCCc1nn(C)c(O)c1C(=O)c1cccnc1` [(5-Hydroxy-1-methyl-3-propyl-1H-pyrazol-4-yl)-pyridin-3-yl-methanone], the “inhibition of forskolin stimulated cAMP / agonist or not (in words)” value at hRUP25 is listed as “activates inhibition of forskolin stimulated cAMP”; at hRUP25 (listed as (5-Hydroxy-1-methyl-3-propyl-1H-pyrazol-4-yl)-pyridin-3-yl-methanone) it was “agonist for RUP25”; at hRUP38 (hRUP38-expressing CHO cells) it was “not for RUP38”. The concentration giving a half-maximal response (EC50) on hRUP25 (hRUP25-expressing CHO cells (stable line #46 in FIG. 18B), read-out: EC50, inhibition of forskolin stimulated cAMP accumulation) came to 352 nM. Further, the “activity on hRUP38-expressing CHO cells (in words)” value on hRUP38 (up to a concentration of at least 100 μM (not shown)) is reported as “no activity”.

As to `CN1CCC[C@H]1c1cccnc1` [(−)-nicotine, (−)-NICOTINE, reference compound], at hRUP25, the concentration giving a half-maximal response (EC50) stood at 9800 nM and the “inhibition of forskolin stimulated cAMP / agonist or not (in words)” value is reported as “agonist for RUP25”.

On to `c1cncc(-c2nn[nH]n2)c1` [P-3-T, 3-tetrazole-5-pyridine, reference compound], for which, in data set [1] (adipocyte primary cultures derived from human subcutaneous fat), the concentration for a half-maximal effect (EC50) came out at 218 nM.

With `O=C(O)c1cccnc1` [nicotinic acid, Nicotinic acid], the “inhibition of isoproterenol stimulated lipolysis (in words)” value in data set [1] is given as “inhibit lipolysis”. In addition, the EC50 in data set [1] (Homo sapiens, Adipocyte) came to 716 nM. The entries for the “inositol phosphates (IPs) accumulation / agonist or not (in words)” value on hRUP19 [3] and at hRUP19 [3] (listed as Nicotinic acid) were “unresponsive” and “not for RUP38 or RUP19”, respectively. Besides, the “inhibition of isoproterenol induced lipolysis (in words)” value in data set [4] is “inhibiting isoproterenol induced lipolysis”. Besides, the “plasma FFA versus vehicle control after inhibition, rebound (in words)” value in the data set with male Sprague Dawley rats (45 mg/kg IP, at 3 hr) was “rebound effect”. Further, the “plasma free fatty acids (FFA) level (in words)” value was “lower plasma free fatty acids” in the data set on male Sprague Dawley rats and “significantly decrease” in the data set on male Sprague Dawley rats (listed as niacin).
